What all share (assay): NCI anticancer screen, dose series, 48 h
Assay [1] relates to HT29 colon.
For assay [2], the system named is K-562 leukemia.
Assay [3] has as its system NCI-H23 lung.
The test system of assay [4] is NCI-H460 lung.
The test system of assay [5] is NCI-H522 lung.
Assay [6] relates to OVCAR-5 ovarian.
For assay [7], the system named is SNB-75 CNS.
The subject of assay [8] is SW-620 colon.
Assay [9] concerns UACC-62 melanoma.
Assay [10] deals with UO-31 renal.
Assay [11] has as its system KM12 colon.

Molecules are shown by their SMILES.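 Compound exposure: 48 hours, 5 concentrations, 96-well plates. GI50 = concentration required for 50% inhibition of growth. The concentration for full growth arrest is given as TGI.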

With `C[P+](c1ccccc1)(c1ccc(Cl)cc1)c1ccc(Cl)cc1`, the TGI is 24.1 µM in assay [1]; 74.4 µM in assay [2]; 31.6 µM in assay [3]; more than 100 µM in assay [4]; 33.1 µM in [5]; 71.5 µM in assay [6]. Further, the TGI is 46 µM in assay [7], more than 100 µM in [8], 28.3 µM in [9] and more than 100 µM in assay [10].
Regarding `C[n+]1c2ccccc2c(CNCC(=O)O)c2ccccc21`, the TGI in assay [1] is 12.1 µM; in [2], 11.1 µM; in [11] it was 11 µM; in [3] it was 24.8 µM; in assay [4], 14.8 µM; in assay [5], 0.307 µM. Moreover, the TGI in assay [6] is 28.5 µM; in [7] it was 20.9 µM; in assay [8], 2.24 µM; in [9], 3.83 µM; in assay [10], 22.8 µM.
As for `c1ccc(-c2n(Cc3ccc4ccccc4c3)c3ccccc3[n+]2Cc2ccc3ccccc3c2)cc1`, the GI50 in [11] was 0.321 µM; in assay [6], 0.44 µM; in [7], 0.184 µM; in assay [8] it was 0.331 µM; in assay [9] it was 0.224 µM; in [10] it was 1.36 µM. Moreover, the TGI stood at 1.2 µM in assay [11]; 1.76 µM in [6]; 0.913 µM in [7]; 1.33 µM in assay [8]; 0.76 µM in [9]; 2.75 µM in assay [10].
For the molecule `O=C(Nc1ccc(Cl)cc1)c1cc([N+](=O)[O-])ccc1O`, the TGI was 29.1 µM in assay [1]; 13.1 µM in [2]; 24.5 µM in assay [11]; 6.66 µM in [3]; more than 79.8 µM in assay [4]; 5.85 µM in [5]. For the same molecule, the TGI in [6] is 81.6 µM; in [7], 20.2 µM; in assay [8], more than 53.3 µM; in [9], 8.17 µM; in assay [10], 7.65 µM.
On to `C=CCNC1=C2C[C@@H](C)C[C@H](OC)[C@H](O)[C@@H](C)/C=C(\C)[C@H](OC(N)=O)[C@@H](OC)/C=C\C=C(/C)C(=O)NC(=CC1=O)C2=O`, for which the TGI turned out to be 12.1 µM in [1]; 29.7 µM in assay [2]; 0.237 µM in assay [11]; 8.3 µM in [3]; 15.9 µM in [4]; 22.3 µM in assay [5]. Moreover, the TGI in assay [6] came out at 22.6 µM; in assay [7] it was 2.72 µM; in assay [8], 33.9 µM; in [9], 4.8 µM; in [10], 21.4 µM.
Turning to `NC(CCP(=O)(O)O)C(=O)O` (stereo not drawn), the TGI in assay [1], in assay [2], in [11], in assay [3], in [4] and in assay [5] was more than 100 µM each time. The TGI in assay [6], in assay [8], in assay [9] and in assay [10] was more than 100 µM each time.
`O=C1c2cccc(O)c2C(=O)c2c(O)cccc21`: the TGI in [1], in assay [2], in [11], in assay [3], in [4] and in assay [5] was more than 100 µM each time. For the same molecule, the TGI in assay [6] is more than 100 µM; in assay [7], more than 100 µM; in [8], more than 100 µM; in assay [9], 39.8 µM; in assay [10] it was more than 100 µM.
In the case of `CCCCSCC(NC(=O)/C=C/c1c(C)[nH]c(=O)[nH]c1=O)C(=O)OC` (stereo not drawn), the TGI in [1] amounted to 357 µM; in assay [2], 367 µM; in assay [11], 157 µM; in [3], 339 µM; in assay [4], 177 µM; in assay [5] it was 132 µM. Also, the TGI in assay [6] turned out to be 300 µM; in assay [7] it was 241 µM; in [8], 346 µM; in assay [9], 198 µM; in assay [10] it was 243 µM.
Take `N=C(N)c1ccc(-c2ccc(-c3ccc4ccccc4c3)s2)s1`: the GI50 in assay [11] was 1.92 µM; in assay [3], 2.96 µM; in assay [4], 1.95 µM; in [5], 1.96 µM; in assay [7], 1.93 µM; in [8] it was 1.91 µM. The values for the GI50 in assay [9] and in assay [10] were 2.1 µM and 1.97 µM, respectively. For the same molecule, the TGI in [11] is 4.08 µM; in assay [3], 11.1 µM; in assay [4], 3.7 µM; in assay [5], 4.77 µM; in assay [7], 5.3 µM; in [8], 3.52 µM. Besides, the TGI in assay [9] was determined as 4.37 µM; in assay [10], 4.49 µM.
For the molecule `CS(=O)(=O)c1ccc2nc(-c3ccc(O)cc3)sc2c1`, the TGI was 26 µM in assay [1]; more than 100 µM in [2]; 30.2 µM in assay [11]; 39.6 µM in [3]; 35.3 µM in assay [4]; 29.6 µM in [5]. The TGI worked out at 31.6 µM in assay [6], 38.4 µM in assay [8], 34.4 µM in assay [9] and 28 µM in assay [10].
`CN(C)CCOc1cc2c(c3ccccc13)-c1ccccc1C2O` (stereo not drawn): the TGI worked out at 27.8 µM in [1]; 38 µM in assay [2]; 29.5 µM in assay [11]; 32.2 µM in assay [3]; 22 µM in assay [4]; 30.7 µM in [5]. Also, the TGI in assay [6] was 17.6 µM; in assay [7], 24.7 µM; in [8] it was 24.8 µM; in [9] it was 31.5 µM; in [10] it was 25.2 µM.
On to `CC1C[C@]2(C[C@@H](C)C(=O)O2)OC2CC3(C)C4CCC5C(C)(C)OC(=O)CC[C@@]56C[C@@]46CC[C@]3(C)C12` (stereo partly drawn), for which the TGI in assay [1], in assay [2], in assay [11], in assay [3], in [4] and in assay [6] was more than 100 µM each time. Besides, the TGI in [7] and in assay [8] was more than 100 µM throughout.
Take `C=CCOCCC(CC=C)C(=O)CC(=O)OC` (stereo not drawn): the TGI in [1], in [2], in assay [11], in assay [3], in assay [4] and in assay [5] was more than 100 µM each time. In addition, the TGI in [6], in [7], in [8], in assay [9] and in assay [10] was more than 100 µM throughout.
Turning to `NC(=O)c1ccc([N+](=O)[O-])cc1`, the TGI in assay [1], in assay [2], in assay [11], in assay [3], in [4] and in assay [5] was more than 100 µM in each case. In addition, the TGI in assay [7], in assay [8], in assay [9] and in assay [10] was more than 100 µM each time.

Source of the values: PubChem BioAssay (NCI).
